Laboratory results reported in ChEMBL document CHEMBL5365400, “Design and synthesis of aminopyridine containing biaryls reducing c-MYC protein levels in cells” (Bioorg Med Chem Lett, 2023).
≈ marks a conversion by molar mass, not a printed value.

Assays:
[1] = AUC (0 to infinity) in po dosed rat; assay type: ADME, organism-based; design: route po; details: in vivo
[2] = Cmax in po dosed rat; assay type: ADME, organism-based; design: route po; details: in vivo
[3] = Half life in po dosed rat; assay type: ADME, organism-based; details: in vivo
[4] = Volume of distribution at steady state in po dosed rat; assay type: ADME, organism-based; details: in vivo
[5] = Clearance in po dosed rat; assay type: ADME, organism-based; details: in vivo
[6] = Aqueous solubility of compound; assay type: physicochemical; details: buffer
[7] = Artificial membrane permeability of compound; assay type: physicochemical; details: PAMPA; read-out: permeability
[8] = Lipophilicity, log D of the compound at pH 7.4 by chromatographic method; assay type: physicochemical; details: buffer
[9] = Oral bioavailability in rat; assay type: ADME, organism-based; details: in vivo

`CCN(CC)c1ccc(-c2nc3cccnn3c2Cc2coc(C)n2)cn1` gave an AUC(0-inf) [1] of 94 ng·h/mL, a Cmax [2] of 110 ng/mL and a half-life [3] of 13.2 min. For the same compound, the Vdss [4] was 2.4 L/kg, the clearance [5] was 190 mL/min/kg and the solubility [6] was no less than 187 µg/mL. The Papp [7] was 68.5 ×10⁻⁶ cm/s and the chromatographic logD [8] was 5.
Compound `CCOCCc1c(-c2ccc(N(CC)CC)nc2)cnc2ccccc12` has a chromatographic logD [8] of 6.9.
`CCOCCc1cc2ccccc2nc1-c1ccc(N(CC)CC)nc1` gave a solubility [6] of 38 µg/mL (≈ 109 µM) and a chromatographic logD [8] of 7.2.
`CCOCCc1c(-c2ccc(N(CC)CC)nc2)c(=O)[nH]c2ccccc12` gave a solubility [6] of 19 µg/mL (≈ 52 µM) and a chromatographic logD [8] of 5.
`CCN(CC)c1ccc(-n2nc3ccccc3c2Cc2coc(C)n2)cn1` gave a solubility [6] of 92 µg/mL (≈ 255 µM) and a chromatographic logD [8] of 5.4.
In the case of `CCOCCc1nc2ccccc2nc1-c1ccc(N(CC)CC)nc1`, the chromatographic logD [8] is reported as 7.4.
`CCN(CC)c1ccc(-c2nn3ccncc3c2Cc2coc(C)n2)cn1` gave a solubility [6] greater than 65 µg/mL and a chromatographic logD [8] of 4.9.
`CCN(CC)c1ccc(-c2nc3nccnc3n2Cc2coc(C)n2)cn1` gave a chromatographic logD [8] of 3.7.
`CCOCCn1c(-c2ccc(N(CC)CC)nc2)nc(Br)c1Br` showed a chromatographic logD [8] of 6.9.
For `CCN(CC)c1ccc(-c2nc3cnccn3c2Cc2coc(C)n2)cn1`, the solubility [6] was 169 µg/mL (≈ 466 µM) and the chromatographic logD [8] was 4.2.
`CCOCCn1c(-c2ccc(N(CC)CC)nc2)nc2ccccc21` showed a solubility [6] of 67 µg/mL (≈ 198 µM) and a chromatographic logD [8] of 6.
With `CCOCCc1c(-c2ccc(N(CC)CC)nc2)ncc2ccccc12` the solubility [6] was 33 µg/mL (≈ 94.4 µM) and the chromatographic logD [8] was 7.
Compound `CCN(CC)c1ccc(-c2nn3cccnc3c2Cc2coc(C)n2)cn1` has a solubility [6] of no less than 142 µg/mL and a chromatographic logD [8] of 4.9.
In the case of `CCN(CC)c1ccc(-c2nn3ccccc3c2Cc2coc(C)n2)cn1`, the solubility [6] is reported as 46 µg/mL (≈ 127 µM) and the chromatographic logD [8] is reported as 5.4.
For `Cc1nc(Cc2c(-c3ccc(N4[C@@H](C)CC[C@@H]4C)nc3)nc3cccnn23)co1`, the AUC(0-inf) [1] was 108 ng·h/mL, the Cmax [2] was 220 ng/mL and the half-life [3] was 14.4 min. The Vdss [4] was 3.1 L/kg, the clearance [5] was 180 mL/min/kg and the solubility [6] was 80 µg/mL (≈ 206 µM). The Papp [7] was 57 ×10⁻⁶ cm/s and the chromatographic logD [8] was 4.7.
`CCN(CC)c1ccc(-c2nc3ncncc3n2Cc2coc(C)n2)cn1` showed a solubility [6] of no less than 119 µg/mL and a chromatographic logD [8] of 3.
`CCOCCn1ccnc1-c1ccc(N(CC)CC)nc1` gave a chromatographic logD [8] of 4.2.
For `CCOCCc1cc(Cl)cnc1-c1ccc(N(CC)CC)nc1`, the chromatographic logD [8] was 7.4.
With `CCOCCc1cccnc1-c1ccc(N(CC)CC)nc1` the chromatographic logD [8] was 5.4.
With `CCOCCc1c(-c2ccc(N(CC)CC)nc2)c(=O)n(C)c2ccccc12` the solubility [6] was 90 µg/mL (≈ 237 µM) and the chromatographic logD [8] was 6.2.
For `CCN(CC)c1ccc(-c2nc3ncccn3c2Cc2coc(C)n2)cn1`, the solubility [6] was no less than 112 µg/mL and the chromatographic logD [8] was 1.5.
For `CCOCCc1cc(-c2ccc(N(CC)CC)nc2)nc2ccccc12`, the chromatographic logD [8] was 8.
With `CCN(CC)c1ccc(-c2nc3ccccc3n2Cc2coc(C)n2)cn1` the AUC(0-inf) [1] was 126 ng·h/mL, the Cmax [2] was 180 ng/mL and the half-life [3] was 13.2 min. The Vdss [4] was 2.1 L/kg, the clearance [5] was 160 mL/min/kg and the solubility [6] was 65 µg/mL (≈ 180 µM). It also gave a Papp [7] of 68 ×10⁻⁶ cm/s, a bioavailability [9] of less than 5% and a chromatographic logD [8] of 5.1.
